Results on 37 compounds are retold here after US5292884A, “Cyclic hydroxamic acids” (Biomide Investment Limited Partnership, priority 1992, dated 1994).

SMILES strings stand for the structures.

The assay has as its target T1, 12-lipoxygenase (Sus scrofa, UniProt P16469).
T1 construct: porcine Leukocyte cytosol in buffer; from tissue; host or cells: porcine leukocyte cytosol
T1 sequence (P16469 1-663): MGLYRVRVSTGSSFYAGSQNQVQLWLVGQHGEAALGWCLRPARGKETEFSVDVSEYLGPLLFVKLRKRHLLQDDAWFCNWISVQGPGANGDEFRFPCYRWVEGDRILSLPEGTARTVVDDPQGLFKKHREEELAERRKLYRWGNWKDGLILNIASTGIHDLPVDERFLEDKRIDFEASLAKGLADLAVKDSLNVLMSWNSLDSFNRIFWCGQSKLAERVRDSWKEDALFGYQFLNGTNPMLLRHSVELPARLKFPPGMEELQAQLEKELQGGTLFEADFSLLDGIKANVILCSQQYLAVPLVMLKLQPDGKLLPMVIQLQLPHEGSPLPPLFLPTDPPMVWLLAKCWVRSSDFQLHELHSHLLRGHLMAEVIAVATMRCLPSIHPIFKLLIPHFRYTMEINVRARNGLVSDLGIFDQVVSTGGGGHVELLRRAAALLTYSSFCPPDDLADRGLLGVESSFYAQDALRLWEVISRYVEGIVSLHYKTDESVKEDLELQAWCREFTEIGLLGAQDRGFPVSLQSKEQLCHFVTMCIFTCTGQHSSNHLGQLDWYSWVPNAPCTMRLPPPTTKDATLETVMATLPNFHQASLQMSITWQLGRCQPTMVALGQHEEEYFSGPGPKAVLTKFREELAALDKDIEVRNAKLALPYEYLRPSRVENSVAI
In words: 12-lipoxygenase inhibition in porcine leukocyte cytosol ([1-14C] arachidonic acid conversion to 12-HETE, TLC). As to conditions: porcine leukocyte cytosol 0.075 mg/mL, pH 8.0, 5 min preincubation, 5 μM arachidonic acid, 15 min at 37° C. It counts as biochemical. As for the experimental part: The standard assay procedure is as follows:
Compounds of the present invention were added in 3 μL of DMSO at an appropriate concentration to porcine Leukocyte cytosol in buffer (final protein concentration of 0.075 mg/mL in 0.1M HEPES, 2 mM caCl2, 1 mM MgCl2, pH=8.0) and preincubated for 5 min at 37° C. [1-^14 C] arachidonic acid was added (final concentration of 5 μM) and the reactions were incubated for 15 min at 37° C. and terminated by the addition of HCl. Total reaction volume was 100 μL. Assays also included reduced glutathione in the assay at 25 μM or following the assay at 1 mM and/or cold carrier 12-HETE and arachidonic acid added at the end of the incubation at concentrations of 5 and 100 μM, respectively. Sample was extracted with water-saturated ethyl acetate and the extracts were spotted onto TLC plates. The plates were developed with dichloromethane/ethyl acetate/acetic acid in a ratio of 70:30:1. Under these conditions, the Rf's of 12-HETE and arachidonic acid are 0.30 and 0.45 , respectively. The percentage conversion to 12-HETE was calculated from the percentage of the total ^14 C on the TLC plate that coelutes with a standard of 12-HETE.

One may read the IC50 as the midpoint of a concentration-inhibition curve. Low values mean greater potency, high ones weaker potency. `CCCCCCCC[C@H]1C[C@H](c2ccccc2)CC(=O)N1O` (relative stereo) [1(a), trans-1-hydroxy-6-octyl-4-phenylpiperidin-2-one] gave an IC50 of 0.15 µM. This lies in the sub-micromolar range. The figure for `CCCCCCCCCCCC[C@@H]1[C@H](c2ccccc2)CCC(=O)N1O` (relative stereo) [1(aa), cis-6-Dodecyl-1-hydroxy-5-phenyl-piperidin-2-one] is 0.8 µM; for `CCCCCCCCCC[C@@H]1C[C@H](c2ccccc2)CC(=O)N1O` (relative stereo) [1(b), cis-1-hydroxy-6-decyl-4-phenyl-piperidin-2-one] it is 0.6 µM; for `CCCCCCCCCCCCCC[C@H]1[C@H](c2ccccc2)CCC(=O)N1O` (relative stereo) [1(bb), trans-1-Hydroxy-5-phenyl-6-tetradecyl-piperidin-2-one] it is 2 µM. The figure for `CCCCCCCCCC[C@H]1C[C@H](c2ccccc2)CC(=O)N1O` (relative stereo) [1(c), trans-1-hydroxy-6-decyl-4-phenyl-piperidin-2-one] is 0.7 µM.

In turn, `CCCCCCCCCCCCCC[C@@H]1[C@H](c2ccccc2)CCC(=O)N1O` (relative stereo) [1(cc), cis-1-Hydroxy-5-phenyl-6-tetradecyl-piperidin-2-one] displayed an IC50 of 0.74 µM.

`CCCCCCCCCCCC[C@@H]1C[C@H](c2ccccc2)CC(=O)N1O` (relative stereo) [1(d), cis-1-hydroxy-6-dodecyl-4-phenyl-piperidine-2-one] showed an IC50 of 0.3 µM. The figure for `O=C1C[C@@H](CCCc2ccccc2)C[C@@H](c2ccccc2)N1O` (relative stereo) [1(ddd), cis-1-Hydroxy-6-phenyl-4-(3-phenylpropyl)-piperidin-2-one] is 4.2 µM. The compound `CCCCCCCCCCCC[C@H]1C[C@H](c2ccccc2)CC(=O)N1O` (relative stereo) [1(e), trans-1-hydroxy-6-dodecyl-4-phenylpiperidin-2-one] showed an IC50 of 0.5 µM. On to `O=C1C[C@@H](CCCc2ccccc2)C[C@H](c2ccccc2)N1O` (relative stereo) [1(eee), trans-1-Hydroxy-6-phenyl-4-(3-phenylpropyl)-piperidin-2-one], for which half-maximal inhibition (IC50) required 3 µM. Compared with the last compound, the IC50 is about 6-fold higher. The figure for `CCCCCCCCCCCCCC[C@@H]1C[C@H](c2ccccc2)CC(=O)N1O` (relative stereo) [1(f), cis-1-hydroxy-4-phenyl-6-tetradecyl-piperidin-2-one] is 0.3 µM. In the case of `CCCCCCCCCCCCCC[C@H]1C[C@H](c2ccccc2)CC(=O)N1O` (relative stereo) [1(g), trans-1-hydroxy-4-phenyl-6-tetradecyl-piperidine-2-one] it was 0.4 µM; in that of `CCCCCCCCCCCCCCCCCC[C@@H]1C[C@H](c2ccccc2)CC(=O)N1O` (relative stereo) [1(h), cis-1-hydroxy-6-octadecyl-4-phenylpiperidin-2-one], above 10 µM.

In turn, `CCCCCCCCCCCCCCCCCC[C@H]1C[C@H](c2ccccc2)CC(=O)N1O` (relative stereo) [1(i), trans-1-hydroxy-6-octadecyl-4-phenylpiperidin-2-one] returned an IC50 of 10 µM.

In turn, `O=C1C[C@@H](c2ccccc2)C[C@@H](CCCc2ccccc2)N1O` (relative stereo) [1(j), cis-1-hydroxy-4-phenyl-6-(3-phenylpropyl)-piperidin-2-one] showed an IC50 of 0.28 µM. This IC50 lies about 36-fold lower than the previous one.

`CCCCCCCCCC[C@@H]1C[C@H](Cc2ccccc2)CC(=O)N1O` (relative stereo) [1(jj), cis-4-Benzyl-6-decyl-1-hydroxy-piperidin-2-one] registered an IC50 of 0.25 µM. The IC50 values of the last two compounds are within 1.5-fold of each other. Regarding `O=C1C[C@@H](c2ccccc2)C[C@H](CCCc2ccccc2)N1O` (relative stereo) [1(k), trans-1-hydroxy-4-phenyl-6-(3-phenylpropyl)-piperidin-2-one], the IC50 amounted to 0.39 µM. In the case of `CCCCCCCCCC[C@H]1C[C@H](Cc2ccccc2)CC(=O)N1O` (relative stereo) [1(kk), trans-4-Benzyl-6-decyl-1-hydroxy-piperidin-2-one] it was 0.4 µM; in that of `O=C1C[C@H](c2ccccc2)C[C@H](CCCCCCCc2ccccc2)N1O` (relative stereo) [1(l), cis-1-hydroxy-4-phenyl-6-(7-pheylheptyl)-iperidin-2-one], 0.5 µM. The figure for `CCCCCCCCCCCC[C@@H]1C[C@H](Cc2ccccc2)CC(=O)N1O` (relative stereo) [1(ll), cis-4-Benzyl-6-dodecyl-1-hydroxy-piperidin-2-one] is 0.8 µM. The figure for `O=C1C[C@@H](c2ccccc2)C[C@H](CCCCCCCc2ccccc2)N1O` (relative stereo) [1(m), trans-1-hydroxy-4-phenyl-6-(7-phenylheptyl)-piperidin-2-one] is 0.2 µM. The compound `CCCCCCCCCCCC[C@H]1C[C@H](Cc2ccccc2)CC(=O)N1O` (relative stereo) [1(mm), trans-4-Benzyl-6-dodecyl-1-hydroxy-piperidin-2-one] showed an IC50 of 0.8 µM. Compared with the last compound, the IC50 is about 4-fold higher. The figure for `CCCCCCCC[C@@H]1C[C@H](c2cccc3ccccc23)CC(=O)N1O` (relative stereo) [1(n), cis-1-hydroxy-4-(1-naphthyl)-6-octylpiperidin-2-one] is 0.7 µM. As for `CCCCCCCCCCCCCC[C@@H]1C[C@H](Cc2ccccc2)CC(=O)N1O` (relative stereo) [1(nn), cis-4-Benzyl-1-hydroxy-6-tetradecyl-piperidin-2-one], it took 0.4 µM to reach half-maximal inhibition (IC50). The figure for `CCCCCCCC[C@H]1C[C@H](c2cccc3ccccc23)CC(=O)N1O` (relative stereo) [1(o), trans-1-hydroxy-4-(1-naphthyl)-6-octylpiperidin-2-one] is 0.13 µM; for `CCCCCCCCCCCCCC[C@H]1C[C@H](Cc2ccccc2)CC(=O)N1O` (relative stereo) [1(oo), trans-4-Benzyl-1-hydroxy-6-tetradecyl-piperidin-2-one] it is 0.7 µM; for `CCCCCCCC[C@@H]1C[C@H](c2ccc3ccccc3c2)CC(=O)N1O` (relative stereo) [1(p), cis-1-hydroxy-4-(2-naphthyl)-6-octylpiperidin-2-one] it is 0.09 µM. In the case of `CCCCCCCC[C@H]1C[C@H](c2ccc3ccccc3c2)CC(=O)N1O` (relative stereo) [1(q), trans-1-hydroxy-4-(2-naphthyl)-6-octylpiperidin-2-one] it was 0.1 µM. The compound `CCCCCCCCCCCC[C@@H]1C(=O)N(O)CC[C@@H]1c1ccccc1` (relative stereo) [1(r), cis-1-hydroxy-4-phenyl-3-dodecylpiperidin-2-one] came in with a concentration for half-maximal inhibition (IC50) of 0.8 µM. Compared with the last compound, the IC50 is about 8-fold higher.

`CCCCCCCCCCCC[C@@H]1C(=O)N(O)CC[C@H]1c1ccccc1` (relative stereo) [1(s), trans-1-hydroxy-4-phenyl-3-dodecylpiperidin-2-one] displayed an IC50 of 0.7 µM. The figure for `CCCCCCCCC[C@@H]1CC(=O)N(O)C[C@@H]1c1ccccc1` (relative stereo) [1(ss), cis-1-Hydroxy-4-nonyl-5-phenyl-piperidin-2-one] is 0.4 µM; for `O=C1[C@@H](CCCc2ccccc2)[C@@H](c2ccccc2)CCN1O` (relative stereo) [1(t), cis-1-hydroxy-4-phenyl-3-(3-phenylpropyl)-piperidin-2-one] it is 0.9 µM; for `CCCCCCCCC[C@@H]1CC(=O)N(O)C[C@H]1c1ccccc1` (relative stereo) [1(tt), trans-1-Hydroxy-4-nonyl-5-phenyl-piperidin-2-one] it is 0.6 µM. For the compound `O=C1[C@@H](CCCc2ccccc2)[C@H](c2ccccc2)CCN1O` (relative stereo) [1(u), trans-1-hydroxy-4-phenyl-3-(3-phenylpropyl)-piperidin-2-one], inhibition was half-maximal at 1.5 µM (IC50). For `CCCCCCCCCC[C@@H]1CC[C@H](c2ccccc2)C(=O)N1O` (relative stereo) [1(v), cis-6-Decyl-1-hydroxy-3-phenyl-piperidin-2-one], the IC50 amounted to 1 µM. In the case of `O=C1CC[C@@H](c2ccccc2)[C@@H](CCCc2ccccc2)N1O` (relative stereo) [1(ww), cis-1-Hydroxy-5-phenyl-6-(3-phenylpropyl)-piperidin-2-one] it was 0.9 µM. `CCCCCCCCCC[C@@H]1[C@H](c2ccccc2)CCC(=O)N1O` (relative stereo) [1(x), cis-6-Decyl-1-hydroxy-5-phenyl-piperidin-2-one] registered an IC50 of 0.2 µM.
